Target: T1, human IDO1 (Homo sapiens, UniProt P14902)
T1 construct: expressed in transfected cells
Assay: HEK Human IDO-1 inhibition assay (kynurenine readout, Ehrlich reagent, absorbance 490 nm)
Format: cell-based
Details: human IDO1/HEK293 cells, incubated 20 hours with compound; 500 nM reference standard = 100% inhibition
Summary of the method: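 HEK293 cells stably expressing human IDO1, treated with compound for 20 h at 37 °C in phenol red-free RPMI/10% FBS. Kynurenine detected after TCA (0.2% final, 50 °C, 30 min) by Ehrlich reagent absorbance at 490 nm; IC50 normalised to 500 nM reference standard (100%) and DMSO (0%).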

T1 sequence (P14902 whole entry): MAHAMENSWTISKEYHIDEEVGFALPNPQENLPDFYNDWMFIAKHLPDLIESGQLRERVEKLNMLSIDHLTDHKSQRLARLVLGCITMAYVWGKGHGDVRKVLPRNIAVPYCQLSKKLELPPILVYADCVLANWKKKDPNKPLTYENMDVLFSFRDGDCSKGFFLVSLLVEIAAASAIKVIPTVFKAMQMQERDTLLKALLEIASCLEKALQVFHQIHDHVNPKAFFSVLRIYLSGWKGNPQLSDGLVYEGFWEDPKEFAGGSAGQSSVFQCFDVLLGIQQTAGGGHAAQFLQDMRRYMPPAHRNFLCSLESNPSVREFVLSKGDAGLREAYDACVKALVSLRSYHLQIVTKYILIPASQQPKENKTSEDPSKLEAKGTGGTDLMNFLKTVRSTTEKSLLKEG

| IC50 | Compound |
| --- | --- |
| < 5 nM | CC(C)CN(c1ccc(OCc2nnn[nH]2)cc1NC(=O)Nc1ccc(Cl)cc1F)C1CCCCC1 [Example 96, 1-(5-((1H-tetrazol-5-yl)methoxy)-2-(cyclohexyl(isobutyl)amino)phenyl)-3-(4-chloro-2-fluorophenyl)urea] |
| ≥ 100 nM | CC(C)CN(c1ccc(OCC(=O)O)cc1NC(=O)Nc1ccc(Cl)cc1F)C1CCOC1 (stereo not drawn) [Example 144, 2-(3-(3-(4-chloro-2-fluorophenyl)ureido)-4-(isobutyl(tetrahydrofuran-3-yl)amino)phenoxy)acetic acid] |
| < 100 nM | C=C(C)CN1CCC(N(CC(=C)C)c2ccc(OCC(=O)O)cc2NC(=O)Nc2ccc(Cl)cc2F)CC1 [Example 142, 2-(3-(3-(4-chloro-2-fluorophenyl)ureido)-4-((2-methylallyl)(1-(2-methylallyl)piperidin-4-yl)amino)phenoxy)acetic acid] |
| < 100 nM | CC(C)CN(c1cc(F)c(OCC(=O)O)cc1NC(=O)Nc1ccc(OC(F)(F)F)cc1)C1CCCCC1 [Example 127, 2-(4-(cyclohexyl(isobutyl)amino)-2-fluoro-5-(3-(4-(trifluoromethoxy)phenyl)ureido)phenoxy)acetic acid] |
| ≥ 100 nM | CCCN(Cc1ccccc1)c1ccc(OCC(=O)O)cc1NC(=O)Cc1ccc(Cl)cc1F [Example 165, 2-(4-(benzyl(propyl)amino)-3-(2-(4-chloro-2-fluorophenyl)acetamido)phenoxy)acetic acid] |
| ≥ 100 nM | CCCC(Oc1ccc(N(CC(C)C)C2CCCCC2)c(NC(=O)Nc2cncnc2)c1)C(=O)O (single isomer, unassigned) [Example 88-1, 2-(4-(cyclohexyl(isobutyl)amino)-3-(3-(pyrimidin-5-yl)ureido)phenoxy)pentanoic acid] |
| < 100 nM | CCOC(=O)C(C)Oc1ccc(N(CC(C)C)C2CCCCC2)c(NC(=O)Nc2ccc(Cl)cc2F)c1 (single isomer, unassigned) [Example 67-1, ethyl 2-(3-(3-(4-chloro-2-fluorophenyl)ureido)-4-(cyclohexyl(isobutyl)amino)phenoxy)propanoate] |
| < 5 nM | CCCC(Oc1ccc(N(CC(C)C)C2CCCCC2)c(NC(=O)Nc2ccc(C)cc2)c1)C(=O)O (single isomer, unassigned) [Example 86-2, 2-(4-(cyclohexyl(isobutyl)amino)-3-(3-(p-tolyl)ureido)phenoxy)pentanoic acid] |
| < 5 nM | CCC(Oc1ccc(N(CC(C)C)C2CCCCC2)c(NC(=O)Nc2ccc(C)cc2)c1)C(=O)O (single isomer, unassigned) [Example 82-1, 2-(4-(cyclohexyl(isobutyl)amino)-3-(3-(p-tolyl)ureido)phenoxy)butanoic acid] |
| ≥ 100 nM | CC(C)CN(c1ccc(OCC(=O)O)cc1NC(=O)Cc1ccc(F)cc1)C1CCCCC1 [Example 57, 2-(4-(cyclohexyl(isobutyl)amino)-3-(2-(4-fluorophenyl)acetamido)phenoxy)acetic acid] |
| < 5 nM | Cc1cc(NC(=O)Nc2cc(OC(C)C(=O)NS(=O)(=O)C3CC3)ccc2N(CC(C)C)C2CCCCC2)on1 (racemic) [Example 68] |
| < 5 nM | CC(C)CN(c1ccc(OCC(=O)Nc2ncco2)cc1NC(=O)Nc1ccc(Cl)cc1F)C1CCCCC1 [Example 154, 2-(3-(3-(4-chloro-2-fluorophenyl)ureido)-4-(cyclohexyl(isobutyl)amino)phenoxy)-N-(oxazol-2-yl)acetamide] |
| ≥ 100 nM | CC(C)CN(c1ccc(OCC(=O)O)cc1N(C)C(=O)Nc1ccc(Cl)cc1F)C1CCCCC1 [Example 45] |
| < 100 nM | Cc1cc(NC(=O)Nc2cc(OCC(=O)O)ccc2N(CC(C)C)C2CCCCC2)on1 [Example 4, 2-(4-(cyclohexyl(isobutyl)amino)-3-(3-(3-methylisoxazol-5-yl)ureido)phenoxy)acetic acid] |
| ≥ 100 nM | CC(C)CN(c1ccc(OCC(N)=O)cc1NC(=O)Nc1ccc(Cl)cc1F)C1CCCCC1 [Example 153, 2-(3-(3-(4-chloro-2-fluorophenyl)ureido)-4-(cyclohexyl(isobutyl)amino)phenoxy)acetamide] |
| < 100 nM | CC(C)CN(c1ccc(OC(C)C(=O)O)cc1NC(=O)Cc1ccc(F)cc1F)C1CCCCC1 (racemic) [Example 71, 2-(4-(cyclohexyl(isobutyl)amino)-3-(2-(2,4-difluorophenyl)acet-amido)phenoxy)propanoic acid] |
| ≥ 100 nM | CC(C)CN(c1ccc(OCC(=O)O)cc1NC(=O)Cc1ccc(F)cc1F)C1CCCCC1 [Example 56, 2-(4-(cyclohexyl(isobutyl)amino)-3-(2-(2,4-difluorophenyl)acetamido)phenoxy)acetic acid] |
| < 5 nM | CC(C)CN(c1ccc(OCC(=O)O)cc1NC(=O)Nc1ccccc1F)C1CCCCC1 [Example 18, 2-(4-(cyclohexyl(isobutyl)amino)-3-(3-(2-fluorophenyl)ureido)phenoxy)acetic acid] |

| IC50 | Compound |
| --- | --- |
| < 5 nM | CCC(Oc1ccc(N(CC(C)C)C2CCCCC2)c(NC(=O)Nc2ccc(Cl)cc2F)c1)C(=O)O (single isomer, unassigned) [Example 80-1, 2-(3-(3-(4-chloro-2-fluorophenyl)ureido)-4-(cyclohexyl(isobutyl)amino)phenoxy)butanoic acid] |
| ≥ 100 nM | CC(C)CN(c1ccc(OCC(=O)O)cc1NC(=O)Nc1ccc(N(C)C)cc1)C1CCCCC1 [Example 9, 2-(4-(cyclohexyl(isobutyl)amino)-3-(3-(4-(dimethylamino)phenyl)ureido)phenoxy)acetic acid] |
| < 100 nM | CCCC(Oc1ccc(N(CC(C)C)C2CCCCC2)c(NC(=O)Nc2cncnc2)c1)C(=O)O (single isomer, unassigned) [Example 88-2, 2-(4-(cyclohexyl(isobutyl)amino)-3-(3-(pyrimidin-5-yl)ureido)phenoxy)pentanoic acid] |
| ≥ 100 nM | CC(C)CN(c1ccc(OCC(=O)O)cc1NC(=O)Nc1ccc(Oc2ccccc2)cc1)C1CCCCC1 [Example 13, 2-(4-(cyclohexyl(isobutyl)amino)-3-(3-(4-phenoxyphenyl)ureido)phenoxy)acetic acid] |
| < 5 nM | CC(C)CN(c1ccc(OC2(C(=O)O)CC2)cc1NC(=O)Nc1ccc(Cl)cc1F)C1CCCCC1 [Example 93, 1-(3-(3-(4-chloro-2-fluorophenyl)ureido)-4-(cyclohexyl(isobutyl)amino)phenoxy)cyclopropanecarboxylic acid] |
| ≥ 100 nM | CC(C)CN(c1cc(F)c(OCC(=O)O)cc1NC(=O)Nc1ccc(C#N)nc1)C1CCCCC1 [Example 128, 2-(5-(3-(6-cyanopyridin-3-yl)ureido)-4-(cyclohexyl(isobutyl)amino)-2-fluorophenoxy)acetic acid] |
| ≥ 100 nM | CCCN(Cc1ccccc1)c1ccc(OCC(=O)O)cc1NC(=O)Nc1ccc(C(F)(F)F)cc1 [Example 162, 2-(4-(benzyl(propyl)amino)-3-(3-(4-(trifluoromethyl)phenyl)ureido)phenoxy)acetic acid] |
| < 5 nM | COc1ccc(NC(=O)Nc2cc(OC(C)C(=O)O)ccc2N(CC(C)C)C2CCCCC2)c(F)c1 (racemic) [racemic 64] |
| ≥ 100 nM | CC(C)CN(c1ccc(OCC(=O)O)cc1NC(=O)N1CCc2ccccc21)C1CCCCC1 [Example 16, 2-(4-(cyclohexyl(isobutyl)amino)-3-(indoline-1-carboxamido)phenoxy)acetic acid] |
| ≥ 100 nM | CC(C)CN(c1ccc(OCC(=O)O)cc1NC(=O)Cc1ccc(Cl)c(F)c1)C1CCCCC1 [Example 54, 2-(3-(2-(4-chloro-3-fluorophenyl)acetamido)-4-(cyclohexyl(isobutyl)amino)phenoxy)acetic acid] |
| < 5 nM | CCC(Oc1ccc(N(CC(C)C)C2CCCCC2)c(NC(=O)Nc2ccc(Cl)cc2F)c1)C(=O)O (single isomer, unassigned) [Example 80-2, 2-(3-(3-(4-chloro-2-fluorophenyl)ureido)-4-(cyclohexyl(isobutyl)amino)phenoxy)butanoic acid] |
| < 100 nM | Cc1ccc(NC(=O)Nc2cc(OC(C)C(=O)O)ccc2N(CC(C)C)C2CCCCC2)c(F)c1 (single isomer, unassigned) [Example 65-1, 2-(4-(cyclohexyl(isobutyl)amino)-3-(3-(2-fluoro-4-methylphenyl)ureido)phenoxy)propanoic acid] |
| < 100 nM | Cc1ccc(NC(=O)Nc2cc(OCC(=O)O)ccc2N(CC(C)C)C2CCCCC2)cc1F [Example 33, 2-(4-(cyclohexyl(isobutyl)amino)-3-(3-(3-fluoro-4-methylphenyl)ureido)phenoxy)acetic acid] |
| < 5 nM | CCOC(=O)C(C)Oc1ccc(N(CC(C)C)C2CCCCC2)c(NC(=O)Nc2ccc(Cl)cc2F)c1 (single isomer, unassigned) [Example 67-2, ethyl 2-(3-(3-(4-chloro-2-fluorophenyl)ureido)-4-(cyclohexyl(isobutyl)amino)phenoxy)propanoate] |
| ≥ 100 nM | CC(C)CN(c1ccc(OCC(=O)NCC(F)(F)F)cc1NC(=O)Nc1ccc(Cl)cc1F)C1CCCCC1 [Example 135, 2-(3-(3-(4-chloro-2-fluorophenyl)ureido)-4-(cyclohexyl(isobutyl)amino)phenoxy)-N-(2,2,2-trifluoroethyl)acetamide] |
| < 100 nM | Cc1ccc(NC(=O)Nc2cc(OCC(=O)NS(=O)(=O)C3CC3)ccc2N(CC(C)C)C2CCCCC2)cc1 [Example 53, 2-(4-(cyclohexyl(isobutyl)amino)-3-(3-(p-tolyl)ureido)phenoxy)-N-(cyclopropylsulfonyl)acetamide] |
| < 5 nM | CC(C)CN(c1ccc(OCC(=O)NS(=O)(=O)C2CC2)cc1NC(=O)Nc1ccc(Cl)cc1F)C1CCCCC1 [Example 47, 2-(3-(3-(4-chloro-2-fluorophenyl)ureido)-4-(cyclohexyl (isobutyl)amino)phenoxy)-N-(cyclopropyl-sulfonyl)acetamide] |
| < 5 nM | CCOC(=O)COc1ccc(N(CC(C)C)C2CCCCC2)c(NC(=O)Nc2ccc(Cl)cc2F)c1 [Example 42, ethyl 2-(3-(3-(4-chloro-2-fluorophenyl)ureido)-4-(cyclohexyl(isobutyl)amino)phenoxy)acetate] |

— patent publication US10689331B2, “IDO inhibitors” (Bristol-Myers Squibb Company, priority 2015, dated 2020)
